Assay results as given in patent publication US20140212382A1, “PURINE MONOPHOSPHATE PRODRUGS FOR TREATMENT OF VIRAL INFECTIONS” (EMORY UNIVERSITY, priority 2011, published 2014).
Where two headings read alike, the source gives them in different places.

Columns and labels:
[1] = system: MtDNA, HepG2 Hepatoma cells; test: Mitochondrial toxicity in HepG2 cells: mitochondrial DNA content; format: cell-based
Description: A real-time PCR assay to accurately quantify mitochondrial DNA content has been developed (see Stuyver L J, Lostia S, Adams M, Mathew J S, Pai B S, Grier J, Tharnish P M, Choi Y, Chong Y, Choo H, Chu C K, Otto M J, Schinazi R F. Antiviral activities and cellular toxicities of modified 2′,3′-dideoxy-2′,3′-didehydrocytidine analogs. Antimicrob. Agents Chemother. 2002; 46: 3854-60). This assay was used in all studies described in this application that determine the effect of nucleoside analogs on mitochondrial DNA content. In this assay, low-passage-number HepG2 cells were seeded at 5,000 cells/well in collagen-coated 96-well plates. Nucleoside monophosphate analogs were added to the medium to obtain final concentrations of 0 μM, 0.1 μM, 10 μM and 100 μM. On culture day 7, cellular nucleic acids were prepared by using commercially available columns (RNeasy 96 kit; Qiagen). […] The mitochondrial cytochrome c oxidase subunit II (COXII) gene and the β-actin or rRNA gene were amplified from 5 μl of the eluted nucleic acids using a multiplex Q-PCR protocol with suitable primers and probes for both target and reference amplifications. For COXII the following sense, probe and antisense primers are used, respectively: 5′-[…]-3′,5′-tetrachloro-6-carboxyfluorescein-[…]-TAMRA-3′ and 5′-[…]-3′. For exon 3 of the β-actin gene (GenBank accession number E01094) the sense, probe, and antisense primers are 5′-[…]-3′,5′-6-[…]-3′ and 5′-[…]-3′, respectively. The primers and probes for the rRNA gene are commercially available from Applied Biosystems. Since equal amplification efficiencies were obtained for all genes, the comparative CT method was used to investigate potential inhibition of mitochondrial DNA synthesis. The comparative CT method uses arithmetic formulas in which the amount of target (COXII gene) is normalized to the amount of an endogenous reference (the β-actin or rRNA gene) and is relative to a calibrator (a control with no drug at day 7). The arithmetic formula for this approach is given by 2-ΔΔCT, where ΔΔCT is (CT for average target test sample−CT for target control)−(CT for average reference test−CT for reference control) (see Johnson M R, K Wang, J B Smith, M J Heslin, R B Diasio. Quantitation of dihydropyrimidine dehydrogenase expression by real-time reverse transcription polymerase chain reaction. Anal. Biochem. 2000; 278:175-184). A decrease in mitochondrial DNA content in cells grown in the presence of drug would indicate mitochondrial toxicity.
(§1) The effect of compounds 8b-up, 12, and 8a on nuclear or mitochondrial DNA, or lactic acid production, in HepG2 Hepatoma cells was analyzed over a 14 day period. The procedure outlined in section (i) above was used for this analysis.

[2] = system: nuclear DNA, HepG2 Hepatoma cells; test: Mitochondrial toxicity in HepG2 cells: nuclear DNA content; format: cell-based
Description: This assay was used in all studies described in this application that determine the effect of nucleoside analogs on mitochondrial DNA content. In this assay, low-passage-number HepG2 cells were seeded at 5,000 cells/well in collagen-coated 96-well plates. […] On culture day 7, cellular nucleic acids were prepared by using commercially available columns (RNeasy 96 kit; Qiagen). […] The mitochondrial cytochrome c oxidase subunit II (COXII) gene and the β-actin or rRNA gene were amplified from 5 μl of the eluted nucleic acids using a multiplex Q-PCR protocol with suitable primers and probes for both target and reference amplifications. […] For exon 3 of the β-actin gene (GenBank accession number E01094) the sense, probe, and antisense primers are 5′-[…]-3′,5′-6-[…]-3′ and 5′-[…]-3′, respectively. The primers and probes for the rRNA gene are commercially available from Applied Biosystems. […] The comparative CT method uses arithmetic formulas in which the amount of target (COXII gene) is normalized to the amount of an endogenous reference (the β-actin or rRNA gene) and is relative to a calibrator (a control with no drug at day 7). The arithmetic formula for this approach is given by 2-ΔΔCT, where ΔΔCT is (CT for average target test sample−CT for target control)−(CT for average reference test−CT for reference control) (see Johnson M R, K Wang, J B Smith, M J Heslin, R B Diasio. Quantitation of dihydropyrimidine dehydrogenase expression by real-time reverse transcription polymerase chain reaction. Anal. Biochem. 2000; 278:175-184). A decrease in mitochondrial DNA content in cells grown in the presence of drug would indicate mitochondrial toxicity.
as §1

[3] = Cytotoxicity in HCV replicon assay (ΔCt rRNA); format: cell-based; conditions: human, HCV Replicon (Huh7)
Description: (§2) Huh 7 Clone B cells containing HCV Replicon RNA were seeded in a 96-well plate at 5000 cells/well, and the compounds tested at 10 μM in triplicate immediately after seeding. Following five days incubation (37° C., 5% CO2), total cellular RNA was isolated using the versaGene RNA purification kit from Gentra. Replicon RNA and an internal control (TaqMan rRNA control reagents, Applied Biosystems) were amplified in a single step multiplex Real Time RT-PCR Assay. The antiviral effectiveness of the compounds was calculated by subtracting the threshold RT-PCR cycle of the test compound from the threshold RT-PCR cycle of the no-drug control (ΔCt HCV). A ΔCt of 3.3 equals a 1-log reduction (equal to 90% less starting material) in Replicon RNA levels. The cytotoxicity of the compounds was also calculated using the ΔCt rRNA values. (2′-C-Me-C) was used as the control. To determine EC90 and IC50 values^2, ΔCt: values were first converted into a fraction of the starting material,^3 and then were used to calculate the % inhibition. The data on three compounds (Compound 12, Compound 8a, and compound 8b-up) is shown below in Table 3.

[4] = system: HCV Replicon RNA in Huh 7 Clone B cells; test: HCV replicon assay; format: cell-based; conditions: Hepatitis C virus
Description: as §2

PBM cells = test: Cellular pharmacology in PBM cells (LC-MS/MS of intracellular metabolites); format: in vitro ADME; conditions: 50 μM, 4 h, 37° C.
Description: Test compounds are incubated in PBM cells at 50 μM for 4 h at 37° C. Then the drug containing media is removed and the PBM cells are washed twice with PBS to remove extracellular drugs. The intracellular drugs are extracted from 10×10^6 PBM cells using 1 mL 70% ice-cold methanol (containing 10 nM of the internal standard ddATP). Following precipitation, the samples are maintained at room temperature for 15 min followed by vortexing for 30 sec, and then stored 12 h at −20° C. The supernatant is then evaporated to dryness. Dry samples would be stored at −20° C. until LC-MS/MS analysis. Prior to analysis, each sample is reconstituted in 100 μL mobile phase A, and centrifuged at 20,000 g to remove insoluble particulates.
Gradient separation is performed on a Hypersil GOLD column (100×1.0 mm, 3 μm particle size; Thermo Scientific, Waltham, Mass., USA). Mobile phase A consists of 2 mM ammonium phosphate and 3 mM hexylamine. Acetonitrile is increased from 10 to 80% in 15 min, and kept at 80% for 3 min. Equilibration at 10% acetonitrile lasts 15 min. The total run time is 33 min. The flow rate is maintained at 50 μL/min and a 10 μL injection is used. The autosampler and the column compartment are typically maintained at 4.5 and 30° C., respectively.
The first 3.5 min of the analysis is diverted to waste. The mass spectrometer is operated in positive ionization mode with a spray voltage of 3.2 kV.

Huh7 cells = test: Cellular pharmacology in Huh7 cells (LC/MS of nucleotides formed); format: in vitro ADME; conditions: 50 μM, 4 hr
Description: Similar to the method outlined for HepG2 cellular pharmacology, compounds are incubated in Huh-7 cells for 4 hr at the concentration of 50 μM in triplicate. […] Ice-cold 70% methanol can be used as the extraction solvent. ddATP (10 nM) can be used as the internal standard.

[5] = 1 μM, HepG2 Hepatoma cells, 14 day assay
[6] = 10 μM, HepG2 Hepatoma cells, 14 day assay
[7] = 50 μM, HepG2 Hepatoma cells, 14 day assay
[8] = Huh 7 Clone B cells containing HCV replicon RNA
[9] = Huh-7, 120 h, HCV Replicon (Huh7), five days incubation, read-out: EC50

## CCOC(=O)CCc1ccccc1OP(=O)(N[C@H](C)C(=O)OCC)OC[C@H]1O[C@@H](n2cnc3c(N)nc(N)nc32)C(C)(O)C1O (stereo partly drawn) [drawing 49]
[1]; [5]
  % Inhibition MtDNA: 24%
[1]; [6]
  % Inhibition MtDNA: 34%
[1]; [7]
  % Inhibition MtDNA: 43%
[2]; [5]
  % Inhibition nuclear DNA: 30%
[2]; [6]
  % Inhibition nuclear DNA: 16%
[2]; [7]
  % Inhibition nuclear DNA: 10%

## CCOC(=O)CCc1ccccc1O[P@](=O)(N[C@@H](C)C(=O)OCC)OC[C@H]1O[C@@H](n2cnc3c(N)nc(N)nc32)C(C)(O)C1O (stereo partly drawn)
[3]
  CC50 at 5 day: > 3 µM
[4]; Huh-7, 120 h
  EC50: 2.3 µM
  EC90: 7.7 µM

## CCOC(=O)[C@H](C)NP(=O)(OC[C@H]1O[C@@H](n2cnc3c(N)nc(N)nc32)C(C)(O)C1O)Oc1ccccc1 (stereo partly drawn) [drawing 56]
[3]
  CC50 at 5 day: > 10 µM
[4]; Huh-7, 120 h
  EC50: 1.3 µM
  EC90: 4.9 µM

## CCOC(=O)[C@H](C)NP(=O)(OC[C@@H]1OC[C@H](n2cnc3c(N)nc(N)nc32)O1)Oc1ccccc1 (stereo partly drawn) [RS-864]
PBM cells
  intracellular level of DAPD: low levels
  intracellular level of DAPD-TP / phosphorylated forms of DAPD: very high levels
  intracellular level of DXG-TP: low levels
PBM cells; LC/MS/MS
  ratio of DXG-TP (6-OH) to DAPD-TP (6-NH2): 2 to 98

## CCOC(=O)CCc1ccccc1O[P@@](=O)(N[C@@H](C)C(=O)OCC)OC[C@H]1O[C@@H](n2cnc3c(N)nc(N)nc32)C(C)(O)C1O (stereo partly drawn)
[3]
  CC50 at 5 day: > 10 µM
[4]; Huh-7, 120 h
  EC50: 0.2 µM
  EC90: 0.7 µM

## CCOC(=O)CCc1ccccc1OP(=O)(N[C@@H](C)C(=O)OCC)OC[C@H]1O[C@@H](n2cnc3c(N)nc(N)nc32)C(C)(F)C1O (stereo partly drawn)
[3]
  CC50 at 5 day: > 10 µM
[4]; Huh-7, 120 h
  EC50: 0.7 µM
  EC90: 2.9 µM

## CCOC(=O)[C@H](C)NP(=O)(OCC1O[C@@H](n2cnc3c(N)nc(N)nc32)C(C)(O)C1O)Oc1ccccc1 (stereo in doubt) [Compound 8a, (2S)-ethyl 2-((((2S,3R,4R,5R)-5-(2,6-diamino-9H-purin-9-yl)-3,4-dihydroxy-4-methyltetrahydrofuran-2-yl)methoxy)(phenoxy)phosphorylamino)propanoate]
Huh7 cells
  intracellular guanine analog triphosphate: also detected
  intracellular level of 2,6-diamino-2′-C-Me purine triphosphate: unexpectedly high levels
[1]; up to 50 μM, HepG2 Hepatoma cells, 14 day assay, summary also covers nuclear DNA and lactic acid
  effect on nuclear or mitochondrial DNA or lactic acid production: no significant effect

## CCOC(=O)[C@H](C)NP(=O)(OC[C@H]1O[C@@H](n2cnc3c(N)nc(N)nc32)C(C)(O)C1O)Oc1ccccc1 (stereo partly drawn) [drawing 51]
[1]; [5]
  % Inhibition MtDNA: < 1%
[1]; [6]
  % Inhibition MtDNA: 5.4%
[1]; [7]
  % Inhibition MtDNA: < 1%
[2]; [5]
  % Inhibition nuclear DNA: 4.0%
[2]; [6]
  % Inhibition nuclear DNA: 20%
[2]; [7]
  % Inhibition nuclear DNA: < 1%

## CC1(O)C(O)[C@@H](CO)O[C@H]1n1cnc2c(N)nc(N)nc21 (stereo partly drawn) [drawing 55]
[3]; [8]
  CC50 at 5 day: > 10 µM
[4]; [9]
  EC50: 3.7 µM
[4]; Huh-7, 120 h, HCV Replicon (Huh7), five days incubation, read-out: EC90
  EC90: 11 µM

## CC(C)OC(=O)CCNC(=O)[C@@H]1OP(=O)(OC[C@H]2O[C@@H](n3cnc4c(N)nc(N)nc43)C(C)(O)C2O)OCC1(C)C (stereo partly drawn)
[3]; [8]
  CC50 at 5 day: > 10 µM
[4]; [9]
  EC50: > 10 µM
[4]; Huh-7, HCV Replicon (Huh7), second line printed as EC50 in the entry, read-out: EC50
  EC50: > 10 µM

## Nc1nc(N)c2ncn([C@H]3CO[C@@H](CO)O3)c2n1 [DAPD]
PBM cells
  intracellular level of DAPD: Low levels
  intracellular level of DAPD-TP / phosphorylated forms of DAPD: no phosphorylated forms of DAPD were detected
  intracellular level of DXG-TP: high levels

## CC1(O)C(O)[C@@H](CO)O[C@H]1n1cnc2c(N)nc(N)nc21 (stereo partly drawn) [drawing 50]
[1]; human, 14 day, 1 μM
  % Inhibition MtDNA: < 1%
[1]; human, 14 day, 10 μM
  % Inhibition MtDNA: < 1%
[1]; human, 14 day, 50 μM
  % Inhibition MtDNA: < 1%
[2]; human, 14 day, 1 μM
  % Inhibition nuclear DNA: 22%
[2]; human, 14 day, 10 μM
  % Inhibition nuclear DNA: 46%
[2]; human, 14 day, 50 μM
  % Inhibition nuclear DNA: 21%

## CC1(O)C(O)[C@@H](CO)O[C@H]1n1cnc2c(N)nc(N)nc21 (stereo partly drawn) [Compound 12, 2,6-diamino-2′-C-Me purine nucleoside]
Huh7 cells
  intracellular guanine analog triphosphate: major triphosphate detected
  intracellular level of 2,6-diamino-2′-C-Me purine triphosphate: extremely low levels
